In PubChem BioAssay AID330 (DTP/NCI, 2004):
Values joined by “and” are separate entries in the source; they are usually repeats but may differ in a detail not shown here. Equal values may be shown once. Inconclusive results and toxic doses are left out.

System: P388 leukemia ip, CD2F1 mice, survival T/C
Assay: NCI In Vivo Anticancer Drug Screen. Data for tumor model P388 Leukemia (intraperitoneal) in CD2F1 (CDF1) mice
Conditions: endpoint: median survival time, higher = longer survival
How it was run: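 Mice carrying the transplanted tumor received test compound or vehicle. Survival was recorded in each group, and the value is the treated-group measurement divided by that of the vehicle-treated control group.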

For Cc1c2ccncc2c(C)c2c1[nH]c1ccccc12, which T/C (dose: 0.31 mg/kg/injection, schedule: Q04DX003 (iv), vehicle: water) is on record?
Its T/C is 99 % of control.

And the T/C (dose: 0.63 mg/kg/injection, schedule: Q04DX003 (iv), vehicle: water)?
The T/C was 107 % of control.

And the T/C (dose: 1.25 mg/kg/injection, schedule: Q04DX003 (iv), vehicle: water)?
The T/C was 99 % of control.

What about the T/C (dose: 1.56 mg/kg/injection, schedule: Q04DX003 (ip), vehicle: distilled water + Tween-80) of the same compound?
Its T/C is 92 % of control.

And the T/C (dose: 2.5 mg/kg/injection, schedule: Q04DX003 (ip), vehicle: water)?
Its T/C is 100 % of control.

And the T/C (dose: 2.5 mg/kg/injection, schedule: Q04DX003 (iv), vehicle: distilled water + Tween-80)?
Its T/C is 107 % of control.

And the T/C (dose: 2.5 mg/kg/injection, schedule: Q04DX003 (iv), vehicle: water)?
Its T/C is 94 % of control.

What about the T/C (dose: 3.12 mg/kg/injection, schedule: Q04DX003 (ip), vehicle: distilled water + Tween-80) of the same compound?
Its T/C is 100 % of control.

And the T/C (dose: 3.13 mg/kg/injection, schedule: Q01DX009 (ip), vehicle: saline with Tween-80)?
The T/C was 154 % of control.

What about the T/C (dose: 3.89 mg/kg/injection, schedule: Q04DX003 (ip), vehicle: clinical formulation) of the same compound?
The T/C was 111 % of control.

And the T/C (dose: 5.0 mg/kg/injection, schedule: Q01DX005 (ip), vehicle: Klucel (hydroxypropylcellulose) (HPC))?
The T/C was 156 % of control.

And the T/C (dose: 5.0 mg/kg/injection, schedule: Q04DX003 (ip), vehicle: distilled water + Tween-80)?
The T/C was 110 % of control.

What about the T/C (dose: 5.0 mg/kg/injection, schedule: Q04DX003 (ip), vehicle: water) of the same compound?
Its T/C is 106 % of control and 110 % of control.

And the T/C (dose: 5.0 mg/kg/injection, schedule: Q04DX003 (iv), vehicle: distilled water + Tween-80)?
Its T/C is 100 % of control.

And the T/C (dose: 5.0 mg/kg/injection, schedule: Q04DX003 (iv), vehicle: water)?
Its T/C is 108 % of control.

What about the T/C (dose: 6.25 mg/kg/injection, schedule: Q01DX009 (ip), vehicle: saline with Tween-80) of the same compound?
Its T/C is 181 % of control.

What about the T/C (dose: 6.25 mg/kg/injection, schedule: Q04DX003 (ip), vehicle: clinical formulation) of the same compound?
Its T/C is 118 % of control and 119 % of control.

And the T/C (dose: 6.25 mg/kg/injection, schedule: Q04DX003 (ip), vehicle: distilled water + Tween-80)?
Its T/C is 100 % of control and 121 % of control.

And the T/C (dose: 6.25 mg/kg/injection, schedule: Q04DX003 (ip), vehicle: saline with Tween-80)?
Its T/C is 161 % of control.

And the T/C (dose: 6.25 mg/kg/injection, schedule: Q04DX003 (ip), vehicle: saline)?
The T/C was 112 % of control.

What about the T/C (dose: 6.48 mg/kg/injection, schedule: Q04DX003 (ip), vehicle: clinical formulation) of the same compound?
Its T/C is 108 % of control.

What about the T/C (dose: 8.0 mg/kg/injection, schedule: Q01DX005 (ip), vehicle: saline with Tween-80) of the same compound?
The T/C was 160 % of control.

What about the T/C (dose: 8.0 mg/kg/injection, schedule: Q01DX005 (iv), vehicle: saline with Tween-80) of the same compound?
Its T/C is 115 % of control.

What about the T/C (dose: 10.0 mg/kg/injection, schedule: Q01DX005 (ip), vehicle: Klucel (hydroxypropylcellulose) (HPC)) of the same compound?
Its T/C is 153 % of control.

And the T/C (dose: 10.0 mg/kg/injection, schedule: Q01DX005 (ip), vehicle: saline with Tween-80)?
Its T/C is 166 % of control.

And the T/C (dose: 10.0 mg/kg/injection, schedule: Q04DX003 (ip), vehicle: distilled water + Tween-80)?
The T/C was 118 % of control.

And the T/C (dose: 10.0 mg/kg/injection, schedule: Q04DX003 (ip), vehicle: water)?
The T/C was 112 % of control.

And the T/C (dose: 10.0 mg/kg/injection, schedule: Q04DX003 (iv), vehicle: distilled water + Tween-80)?
The T/C was 124 % of control.

And the T/C (dose: 10.0 mg/kg/injection, schedule: Q04DX003 (iv), vehicle: water)?
Its T/C is 112 % of control.

And the T/C (dose: 10.8 mg/kg/injection, schedule: Q04DX003 (ip), vehicle: clinical formulation)?
The T/C was 110 % of control.

And the T/C (dose: 12.5 mg/kg/injection, schedule: Q01DX009 (ip), vehicle: saline with Tween-80)?
Its T/C is 195 % of control and 204 % of control.

And the T/C (dose: 12.5 mg/kg/injection, schedule: Q04DX002 (ip), vehicle: Klucel (hydroxypropylcellulose) (HPC))?
The T/C was 150 % of control.

And the T/C (dose: 12.5 mg/kg/injection, schedule: Q04DX003 (ip), vehicle: alkali diluted with water)?
The T/C was 164 % of control.

And the T/C (dose: 13.0 mg/kg/injection, schedule: Q04DX003 (ip), vehicle: water)?
Its T/C is 123 % of control.

What about the T/C (dose: 16.0 mg/kg/injection, schedule: Q01DX005 (ip), vehicle: saline with Tween-80) of the same compound?
Its T/C is 189 % of control.

And the T/C (dose: 16.0 mg/kg/injection, schedule: Q01DX005 (iv), vehicle: saline with Tween-80)?
The T/C was 117 % of control.

And the T/C (dose: 16.0 mg/kg/injection, schedule: Q01DX005 (oral), vehicle: saline with Tween-80)?
The T/C was 155 % of control.

And the T/C (dose: 18.0 mg/kg/injection, schedule: Q04DX003 (ip), vehicle: clinical formulation)?
Its T/C is 110 % of control.

What about the T/C (dose: 20.0 mg/kg/injection, schedule: Q01DX005 (ip), vehicle: Klucel (hydroxypropylcellulose) (HPC)) of the same compound?
Its T/C is 176 % of control and 177 % of control.

And the T/C (dose: 20.0 mg/kg/injection, schedule: Q01DX005 (ip), vehicle: saline with Tween-80)?
Its T/C is 200 % of control.

And the T/C (dose: 20.0 mg/kg/injection, schedule: Q01DX005 (iv), vehicle: saline with Tween-80)?
Its T/C is 111 % of control.
